Laboratory results reported in patent US20100105652A1, “PURINES AS CYSTEINE PROTEASE INHIBITORS” (Glaxo Group Limited, priority 2007, published 2010).
Where a name gives a salt, the structure may show the parent alone.

Legend:
[1] = biological target: T1, Falcipain-2 (Plasmodium falciparum, UniProt Q8I6U4); assay: falcipain-2 enzymatic assay (fluorogenic substrate H-D-VLR-AFC, endpoint); type: biochemical; conditions: parasitic recombinant enzyme, pH 5.5, quenched after 60 minutes
T1 sequence (Q8I6U4 244-484): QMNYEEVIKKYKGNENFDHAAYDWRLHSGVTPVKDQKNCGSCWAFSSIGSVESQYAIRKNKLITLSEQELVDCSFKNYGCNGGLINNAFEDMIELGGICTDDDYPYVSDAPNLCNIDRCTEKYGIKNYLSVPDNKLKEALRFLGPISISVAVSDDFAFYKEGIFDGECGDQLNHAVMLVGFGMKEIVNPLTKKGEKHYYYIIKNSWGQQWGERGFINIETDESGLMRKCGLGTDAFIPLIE
Method: (§1) 1) Determination of Falcipain-2, Falcipain-3, Vivapain-2, and Cathepsin S Proteolytic Catalytic Activity
(§2) Assays for Falcipain-2, Falcipain-3, and Vivapain-2 are carried out with parasitic recombinant enzymes. Cathepsins S is carried out with human recombinant enzymes. Standard assay conditions for the determination of kinetic constants used a fluorogenic peptide substrate, typically H-D-VLR-AFC (Falcipain-2, Falcipain-3, Vivapain-2) or KQKLR-AMC (Cathepsin S) and are determined in 100 mM sodium acetate, pH 5.5, containing 10 mM DTT and 0.5 mM CHAPS (Falcipain-2, Falcipain-3, Vivapain-2), or 50 mM MES, pH 6.5, containing 0.5 mM CHAPS, 10 mM L-CYS, 5 mM EDTA (Cathepsin S). Stock substrate solutions are prepared at 20 mM in DMSO. The activity assays contained 30 uM substrate (Falcipain-2, Falcipain-3, Vivapain-2), and 30 uM substrate (Cathepsin S). All assays contained 1% DMSO. […] All assays are conducted at ambient temperature as end point assays being quenched after 60 minutes with the exception of Cathepsin S at 90 minutes, with 16.6 uM E-64 in 1% DMSO. Product formation (AFC or AMC) is determined from fluorescence (excitation at 405 nm; emission at 530 nm, AFC, or excitation at 360 nm; emission at 460 nm, AMC) monitored with a LJL Aquest (Molecular Devices) fluorescent plate reader. In the case of kinetic reads (used in mechanism of action studies), the reaction is not quenched but is read in the plate reader every 3 minutes for approximately 90 minutes. In addition, the mechanism of action studies for Falcipain-2 utilize Z-LR-AMC as the substrate. Product formation is determined from the fluorescence of AMC, measured with a LJL Acquest (Molecular Devices) fluorescent plate reader (excitation at 360 nm; emission at 460 nm).
(§3) Potential inhibitors are evaluated using the quenched read (endpoint) method. Assays are carried out in the presence of variable concentrations of test compound. Reactions are initiated by addition of enzyme and substrate to wells containing inhibitor stamped in 100% DMSO. For endpoint assays, the reaction is quenched with the addition of E64. Dose response data is fit to an IC50 curve with preset fitting tools according to equation 1:
(§4) y=a+(b−a)/(1+(10^X/10^C)^d) (1)
(§5) where y is the response at a particular inhibitor concentration x, a is the minimum response value, b is the maximum response value, c is the IC50, and d is the slope of the IC50 curve. Assuming the compound is a competitive inhibitor, the apparent KI can be calculated from IC50, as shown in equation 2: […]

[2] = biological target: T2, Falcipain-3 (Plasmodium falciparum, UniProt Q8IIL0); assay: falcipain-3 enzymatic assay (fluorogenic substrate H-D-VLR-AFC, endpoint); type: biochemical; conditions: parasitic recombinant enzyme, pH 5.5, quenched after 60 minutes
T2 sequence (Q8IIL0 243-492): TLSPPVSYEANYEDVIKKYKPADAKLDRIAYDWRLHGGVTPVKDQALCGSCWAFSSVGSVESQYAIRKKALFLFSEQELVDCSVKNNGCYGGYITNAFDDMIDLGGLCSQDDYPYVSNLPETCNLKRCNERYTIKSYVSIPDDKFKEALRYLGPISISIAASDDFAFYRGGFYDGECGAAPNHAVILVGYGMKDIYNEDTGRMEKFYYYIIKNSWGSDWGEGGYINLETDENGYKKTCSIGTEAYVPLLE
Method: as §1, §2, §3, §4, §5

[3] = system: Plasmodium falciparum parasite; assay: whole cell activity against the Plasmodium falciparum parasite; type: cell-based
Source text: Equation 7 describes the apparent KI for competitive compounds and was substituted into equations 5 and 6 to generate the relevant binding constants from the fitting routine. In addition, the initial and final velocities were fit to equation 3 to further define the binding mechanism and potency. A complete discussion of this kinetic treatment has been fully described (Morrison et al., Adv. Enzymol. Relat. Areas Mol. Biol., 1988, 61, 201). 2) Determination of Whole Cell Activity Against the Plasmodium falciparum Parasite Compounds can be evaluated for whole cell activity against the Plasmodium falciparum parasite according to the procedure described in Sijwali S, and Rosenthal P. J., (2004) Proceedings of the National Academy of Sciences of the United States of America (PNAS) 101(13), 4384-4389 (see in particular “Measurement of Parasite Growth rates and Inhibitor Sensitivity” on page 4385); IC50 values can be calculated as described in Singh A. and Rosenthal P. J., (2001) Antimicrobial Agents and Chemotherapy 45(3), 949-951 (see in particular page 950, first column); synchronised parasites can be prepared as described in Divo A. A. et al., (1985) Protozool. 32, 59-64.

Compound	IC50 [1]	IC50 [2]	IC50 [3]
CC(C)CN(NC(=O)c1ccc(CN2CCN(C)CC2)cc1)c1nc(C#N)nc2c1ncn2C [Example 22, N′-(2-cyano-9-methyl-9H-purin-6-yl)-4-[(4-methyl-1-piperazinyl)methyl]-N′-(2-methylpropyl)benzohydrazide]	0.015 to 0.15 µM	0.25 to 0.4 µM	0.4 to 1 µM
CN(C)CCCn1cnc2c(N(CC3CCCC3)NC(=O)OC(C)(C)C)nc(C#N)nc21 [Example 12, 1,1-dimethylethyl 2-{2-cyano-9-[3-(dimethylamino)propyl]-9H-purin-6-yl}-2-(cyclopentylmethyl)hydrazinecarboxylate trifluoroacetate]	0.001 to 0.0025 µM	0.015 to 0.15 µM	0.015 to 0.15 µM
CN(C)CCCn1cnc2c(N(NC(=O)c3ccc(CN4CCN(C)CC4)cc3)C3CCCC3)nc(C#N)nc21 [Example 17, N′-{2-cyano-9-[3-(dimethylamino)propyl]-9H-purin-6-yl}-N′-cyclo pentyl-4-[(4-methyl-1-piperazinyl)methyl]benzohydrazide trifluoroacetate]	0.001 to 0.0025 µM	0.25 to 0.4 µM	0.015 to 0.15 µM
CN(C)CCn1cnc2c(N(NC(=O)c3ccc(CN4CCN(C)CC4)cc3)C3CCCC3)nc(C#N)nc21 [Example 40, N′-{2-cyano-9-[2-(dimethylamino)ethyl]-9H-purin-6-yl}-N′-cyclopentyl-4-[(4-methyl-1-piperazinyl)methyl]benzohydrazide trifluoroacetate]	0.0025 to 0.015 µM	0.25 to 0.4 µM	0.015 to 0.15 µM
CN1CCCC(CN2CCN(Cc3ccc(C(=O)NN(CC4CCCC4)c4nc(C#N)nc5c4ncn5C)cc3)CC2)C1 (centres unmarked) [Example 3, N′-(2-cyano-9-methyl-9H-purin-6-yl)-N′-(cyclopentylmethyl)-4-({4-[(1-methyl-3-piperidinyl)methyl]-1-piperazinyl}methyl)benzohydrazide trifluoroacetate]	0.0025 to 0.015 µM	–	0.015 to 0.15 µM
CN1CCN(Cc2ccc(C(=O)NN(CC3CCCC3)c3nc(C#N)nc4c3ncn4C)cc2)CC1 [Example 23, N′-(2-cyano-9-methyl-9H-purin-6-yl)-N′-(cyclopentylmethyl)-4-[(4-methyl-1-piperazinyl)methyl]benzohydrazide trifluoroacetate]	0.0025 to 0.015 µM	0.015 to 0.15 µM	0.4 to 1 µM
Cn1cnc2c(N(NC(=O)c3ccc(CN4CC(N5CCCC5)C4)cc3)C3CCCC3)nc(C#N)nc21 [Example 7, N′-(2-cyano-9-methyl-9H-purin-6-yl)-N′-cyclopentyl-4-({[3-(1-pyrrolidinyl)-1-azetidinyl]methyl}benzohydrazide trifluoroacetate]	0.0025 to 0.015 µM	0.25 to 0.4 µM	0.015 to 0.15 µM
CN(C)CCn1cnc2c(N(NC(=O)c3cccc(-c4ccc(CN5CCN(C)CC5)cc4)n3)C3CCCC3)nc(C#N)nc21 [Example 42, N′-{2-cyano-9-[2-(dimethylamino)ethyl]-9H-purin-6-yl}-N′-cyclopentyl-6-{4-[(4-methyl-1-piperazinyl)methyl]phenyl}-2-pyridinecarbohydrazide trifluoroacetate]	0.0025 to 0.015 µM	0.015 to 0.15 µM	0.015 to 0.15 µM
CN1CCN(Cc2ccc(C(=O)NN(c3nc(C#N)nc4[nH]cnc34)C3CCCCC3)cc2)CC1 [Example 30, N′-(2-cyano-1H-purin-6-yl)-N′-cyclohexyl-4-[(4-methyl-1-piperazinyl)methyl]benzohydrazide trifluoroacetate]	0.0025 to 0.015 µM	0.015 to 0.15 µM	0.4 to 1 µM
CN(C)CCCn1cnc2c(N(NC(=O)OC(C)(C)C)C3CCOCC3)nc(C#N)nc21 [Example 19, 1,1-dimethylethyl 2-{2-cyano-9-[3-(dimethylamino)propyl]-9H-purin-6-yl}-2-(tetrahydro-2H-pyran-4-yl)hydrazinecarboxylate trifluoroacetate]	0.0025 to 0.015 µM	0.015 to 0.15 µM	0.015 to 0.15 µM
CN1CCN(C2CCN(Cc3ccc(C(=O)NN(c4nc(C#N)nc5c4ncn5C)C4CCCCC4)cc3)CC2)CC1 [Example 8, N′N′-(2-cyano-9-methyl-9H-purin-6-yl)-N′-cyclohexyl-4-({[4-(4-methyl-1-piperazinyl)-1-piperidinyl]methyl}benzohydrazide trifluoroacetate]	0.001 to 0.0025 µM	0.015 to 0.15 µM	0.0025 to 0.015 µM
CN(C)CCn1cnc2c(N(NC(=O)OC(C)(C)C)C3CCCC3)nc(C#N)nc21 [Example 39, 1,1-dimethylethyl 2-{2-cyano-9-[2-(dimethylamino)ethyl]-9H-purin-6-yl}-2-cyclopentylhydrazinecarboxylate trifluoroacetate]	0.0025 to 0.015 µM	0.015 to 0.15 µM	0.015 to 0.15 µM
CN1CCN(c2cccc(C(=O)NN(c3nc(C#N)nc4c3ncn4C)C3CCCCC3)c2)CC1 [Example 36, N′-(2-cyano-9-methyl-9H-purin-6-yl)-N′-cyclohexyl-3-(4-methyl-1-piperazinyl)benzohydrazide trifluoroacetate]	0.0025 to 0.015 µM	0.015 to 0.15 µM	0.015 to 0.15 µM
CN1CCN(c2ccc(C(=O)NN(c3nc(C#N)nc4c3ncn4C)C3CCCC3)cc2)CC1 [Example 32, N′-(2-cyano-9-methyl-9H-purin-6-yl)-N′-cyclopentyl-4-(4-methyl-1-piperazinyl)benzohydrazide trifluoroacetate]	0.0025 to 0.015 µM	0.015 to 0.15 µM	0.25 to 0.4 µM
CN1CCN(C2CCN(Cc3ccc(C(=O)NN(CC4CCCC4)c4nc(C#N)nc5c4ncn5C)cc3)CC2)CC1 [Example 1, N′-(2-cyano-9-methyl-9H-purin-6-yl)-N′-(cyclopentylmethyl)-4-({[4-(4-methyl-1-piperazinyl)-1-piperidinyl]methyl}benzohydrazide trifluoroacetate]	0.0025 to 0.015 µM	0.015 to 0.15 µM	0.015 to 0.15 µM
CC(=O)N1CCC(N(NC(=O)OC(C)(C)C)c2nc(C#N)nc3c2ncn3C)CC1 [Example 20, 1,1-dimethylethyl-2-(1-acetyl-4-piperidinyl)-2-(2-cyano-9-methyl-9H-purin-6-yl)hydrazinecarboxylate]	0.001 to 0.0025 µM	0.15 to 0.25 µM	0.15 to 0.25 µM
CN1CCC(CN2CCN(Cc3ccc(C(=O)NN(c4nc(C#N)nc5c4ncn5C)C4CCCC4)cc3)CC2)CC1 [Example 5, N′-(2-cyano-9-methyl-9H-purin-6-yl)-N′-cyclopentyl-4-({4-[(1-methyl-4-piperidinyl)methyl]-1-piperazinyl}methyl)benzohydrazide trifluoroacetate]	0.0025 to 0.015 µM	0.25 to 0.4 µM	0.0025 to 0.015 µM
